Values of other authors in patent US20050239189A1, “Oxidant-scavenging compound for anaerobic treatment” (priority 2004, published 2005).

Test system: CVOC dehalogenation
Conditions: eight case studies reported by Regenesis, Inc. (2000)

CC(O)C(=O)O (stereo not shown) [Lactic Acid]
stimulation of CVOC dehalogenation: stimulated CVOC dehalogenation
